Where “and” joins values, the source holds several entries; their conditions need not be identical. Equal values may be shown once. Entries after “also recorded” stand apart in the source; their conditions may differ.
Columns and labels:
C. elegans AChE = experiment: Determination of IC50 of compounds to AChE (Ellman method, nematode homogenate); format: biochemical; details: 2-h incubation at 37°C, mean ± SD, triplicates, read-out: IC50 of AChE inhibition
Procedure: Third-instar juvenile stage samples of C. elegans were thoroughly ground using a glass homogenizer. The homogenate was then dissolved in PBS (pH 7.0, which contained 0.1% Triton X-100) using a suitable volume, followed by a 30-min centrifugation at 6000 r/min under 4°C to harvest supernatants to analyze the enzymes ([Ellman et al., 1961]; [Zhao et al., 2018]) [Nematode (3rd instar): 4000 individuals/mL].
After dissolving the eight compounds and chlorpyrifos in acetone, multiple dilutions were made to obtain test concentrations at 5 levels. Thereafter, the test solution of every level (4 µL) was blended with the enzyme solution (96 µL), followed by 2-h incubation at 37°C in a 96-well plate. The final concentrations of compounds were 29.25, 58.50, 117.00, 234.00, and 468.00 µg/mL, respectively. Thereafter, 1.5 mM acetylthiocholine iodide (ATCHI) (50 µL) was added for a further 0.5-h incubation at 37°C. The reaction was finally terminated by adding 0.3 mM 5,5′- dithiobis (2 - nitrobenzoic acid) (DTNB) (50 µL). Afterward, the residual activity of acetylcholinesterase was measured with a microplate reader at 405 nm. Corresponding treatments were then applied to different groups as given below:
The inhibition rate (%) was calculated follows:
I%=[1−(Treatment group−Compound control group)/(Substrate control group−PBS control group)]×100%

C. elegans = experiment: Toxic effects of compounds on C. elegans (lethality); format: in vivo; details: Caenorhabditis elegans, 48 h, mean ± SD, read-out: Lethality rate (%); for mortality at 500 µg/mL: compound 0.5 mg/mL
Procedure: In the toxicity analysis, 95 µL of the nematode solution (containing approximately 80 C. elegans) along with 5 µL of each compound was added to a 96-well plate. The final concentration of each compound was 0.5 mg/mL, and chlorpyrifos (20 µg/mL) was used as the positive control. The samples were mixed sufficiently, followed by 48-h incubation of plates under RT, and subsequently, the dead nematodes were counted to determine the lethality rate ([Roh and Choi, 2008]).

nematode AChE = experiment: Kinetic study on the inhibitory effect of AChE by compound (Lineweaver-Burk and Dixon plots); format: biochemical, C. elegans
Procedure: This study prepared the enzyme solution at multiple gradients (0.125, 0.25, 0.5, and 1.0 U/mL). After adding compound 5 (29.25, 58.50, 117.00, 234.00, and 468.00 µg/mL), the mixed sample was then subjected to a 1-h incubation on a 96-well plate at 37°C (the buffer was used as a substitute for the control group). Later, 1.5 mM ATCHI (50 µL) was added and incubated for a 30-min period, followed by an addition of the 0.3 mM DTNB (50 µL). After 30 s, a microplate reader was utilized to record the OD value at 405 nm (five times at 1-min intervals). The change in the OD value every minute was used to calculate the reaction rate (ΔA/min). Later, the reaction rate curve, as a function of enzyme concentration, was plotted to compare reaction rates (v) among diverse test compound levels. Associations between diverse enzyme levels were utilized to evaluate the inhibitory effect of the compound on nematode AChE ([Xiong et al., 2016]).

SMILES: CCOP(=S)(OCC)Oc1nc(Cl)c(Cl)cc1Cl [Chlorpyrifos, chlorpyrifos, reference compound]
- IC50 (C. elegans AChE): 7.33 ± 0.58 µM
- mortality at 20 µg/mL (C. elegans; positive control 20 µg/mL): 81.7 ± 2.6%

SMILES: C=C(C(=O)O)C1CCC2=CC(O)CC(C)C2(C)C1 (centres unmarked) [Compound 1, laggeranine A]
- IC50 (C. elegans AChE): < 530 µM and 518 µM
- mortality at 500 µg/mL (C. elegans): 38.8 ± 2.5%

SMILES: C=C(C(=O)OCC)[C@@H]1CC[C@@]2(C)CCCC(=C)[C@]2(O)C1 [Compound 2, laggeranine B]
- IC50 (C. elegans AChE): < 710 µM and 701 µM
- mortality at 500 µg/mL (C. elegans): 31.7 ± 0.72%

SMILES: C=C(C(=O)O)[C@H]1C=C2[C@@H](C)CCC[C@]2(C)CC1 [Compound 3, eudesma-5,12-dien-13-oic acid]
- IC50 (C. elegans AChE): 464 ± 10 µM
- mortality at 500 µg/mL (C. elegans): 60.8 ± 2.6%

SMILES: C=C(C(=O)O)[C@@H]1CC[C@@]2(C)CCCC(C)=C2C1 [Compound 4, isocostic acid]
- IC50 (C. elegans AChE): < 530 µM and 528 µM
- mortality at 500 µg/mL (C. elegans): 30.8 ± 1.91%

SMILES: C=C1CCC[C@]2(C)CC[C@@H](C(=C)C(=O)O)CC12 (some centres unmarked) [Compound 5, costic acid]
- IC50 (C. elegans AChE): 437 ± 8.33 µM
- Ki (dissociation constant of the enzyme-inhibitor complex) (nematode AChE; Dixon plot, substrate 3 and 6 mM): 24.668 µg/mL
- type of AChE inhibition (nematode AChE; enzyme-concentration plot, Lineweaver-Burk and Dixon plots): reversible inhibitor; also recorded: mixed-type competitive
- mortality at 500 µg/mL (C. elegans): 72.9 ± 3.15%

SMILES: C=C(C(=O)O)[C@@H]1CC[C@@]2(C)CCC[C@H](C)[C@]2(O)C1 [Compound 6, 5α-hydroxy-4α,15-dihydrocostic acid]
- IC50 (C. elegans AChE): 470 ± 15.6 µM
- mortality at 500 µg/mL (C. elegans): 48.8 ± 2.5%

SMILES: C=C(C(=O)O)[C@@H]1CC[C@@]2(C)CCCC(=C)[C@]2(O)C1 [Compound 7, 5α-hydroxycostic acid]
- IC50 (C. elegans AChE): 485 ± 11.5 µM
- mortality at 500 µg/mL (C. elegans): 50.8 ± 1.91%

SMILES: C=C(C(=O)O)[C@@H]1CC[C@@]2(C)CCC(=O)C(C)=C2C1 [Compound 8, 3-oxo-di-nor-eudesma-4-en-11-oic acid]
- IC50 (C. elegans AChE): < 710 µM and 697 µM
- mortality at 500 µg/mL (C. elegans): 34.6 ± 1.44%

— paper PMC9950556, “Acetylcholinesterase inhibitory activity of sesquiterpenoids isolated from Laggera pterodonta” (Frontiers in Plant Science, 2023)
